The values below come from US7989420B2, “Smooth muscle relaxation” (New York Medical College, priority 2006, dated 2011).

Molecules are shown by their SMILES.

Test [1] deals with bovine pulmonary arteries (BPA). In words: Isometric force generation to serotonin (5-HT) in organ cultured BPA rings. The test is classed as cell-based. As to the method: (§1) Organoid Culture Isolated Arteries for Heme Modulation. Intralobar BPA were isolated from slaughterhouse-derived bovine calf lungs, cleaned from surrounding tissue, and placed in 37° C. Dulbecco's Modified Eagle Medium (DMEM) containing 10% fetal bovine serum, penicillin, streptomycin, and fungizone (complete media). The arteries were isolated and cut into rings ˜2 mm in diameter and width, and the endothelium was removed by gentle rubbing of the lumen. Various compounds (i.e. ALA, FeSO4(Fe), deferoxamine) were added as described in the Results to various experimental groups, and these arteries were organ cultured overnight for 24 h in complete media in a 37° C.-5% CO2 incubator. Preliminary experiments on the time course for detection protoporphyrin IX accumulation and the effects of organ culture with doses of ALA in the 10-100 μM concentration range on contractile function, and minimizing the duration of organ culture were considerations that contributed to selecting the 24 h culture period used in this study.
Studies on the Regulation of Contractile Function. Following the overnight incubation, arterial rings were mounted on wire hooks attached to Grass (FT03) force displacement transducers for measurement of changes in isometric force. Tension was adjusted to 5 g, which is the optimal passive force for maximal contraction. Changes in force were recorded on a Grass polygraph (model 7), while vessels were incubated in 10-ml baths (Metro Scientific), which were individually thermostated (37° C.) in Krebs buffer gassed with 21% O2-5% CO2 (balance N2) in the absence of compounds used to modulate BPA protoporphyrin IX levels. Arteries were incubated for 1 h during which passive tension was adjusted to maintain 5 grams. The vessels were then depolarized with Krebs containing 123 mM KCl (High K^+) in place of NaCl, followed by re-equilibration with Krebs, prior to exposure to the experimental protocols. Following the wash with Krebs buffer after the High K^+ treatment, and a 30 min equilibration, BPA were then contracted with serotonin (5-HT) in a dose dependent manner to determine the response to this contractile agent. In some experiments, BPA were pretreated with the sGC inhibitor, 10 μM ODQ, for 15 min before contraction with serotonin. The effects of ODQ on relaxation to NO was determined by first contracting organ cultured control and ODQ-treated BPA with 1 μM 5-HT (after the initial exposure to increasing concentrations of 5-HT and a 30 min equilibration in Krebs).

Test [2] deals with VASP serine-239 phosphorylation (cGMP-dependent protein kinase activation). Nature of the test: Western blot of VASP serine-239 phosphorylation in BPA. The test is classed as cell-based, bovine. As for the experimental part: Rings from studies on contractile function were snap-frozen in liquid nitrogen, crushed and homogenized in lysis buffer (50 mM Tris-HCl, pH 8.0, 150 mM NaCl, 1 mM EDTA, 1% Triton X-100, 0.5% sodium deoxycholate, 0.1% sodium dodecyl sulfate, 1% of a protease inhibitor cocktail (Sigma) and 1% of a phosphatase inhibitor cocktail (Sigma). The protease inhibitor cocktail included 4-(2-aminoethyl)benzenesulfonyl floride hydrocholride, aprotinin, bestatin hydrochloride, N-(trans-epoxsuccinyl)-L-leucine-4-guanidinobutylamide, leupeptine hemisulfate, pepstatin and the phosphatase inhibitor cocktail included sodium orthovandate, sodium molybdate, sodium tartarate, and imidazole. Protein concentration was determined and 30 μg of protein samples were prepared in electrophoresis sample buffer containing 3% SDS and 3% β-mercaptoethanol and were separated using a 12% gel SDS-PAGE electrophoresis. Membranes were blocked for 1 h in TBST-5% milk and incubated overnight with phospho-VASP antibodies (diluted 1:1000). Membranes were exposed to a secondary horse radish peroxidase linked antibody and visualized with an ECL kit (Amersham). The membranes were subsequently exposed to X-OMAT autoradiography paper (Kodak). Membranes were stripped with TRIS-HCl buffer with 100 mM β-mercaptoethanol at 50° C. for 30 min. Membranes were subsequently washed, blocked and detected for total VASP. Each measurement of phosphorylated VASP was normalized to the total level of VASP, and data are reported as the percent of the levels of phosphorylated VASP seen in control arteries not exposed to agents which modulate the activity of sGC. Expression of sGC was detected with β-sGC subunit antibodies (diluted 1:2000), employing anti-rabbit secondary antibodies, and a protocol where membranes were blocked for 2 h. After analyzing for sGC protein expression, blots were stripped and re-probed for the detection of α-actin protein levels, which were used for normalization of data for statistical analysis based on protein loading.
Background: Immunoblotting shows a protein as a band on a membrane.

Test [3] relates to bovine pulmonary arteries (BPA). Nature of the test: Protoporphyrin IX-associated tissue fluorescence in organ cultured BPA rings. The class given is cell-based. As to the method: as §1
Determination Changes in Protoporphyrin 1× and Heme Levels. Methods for the detection of protoporphyrin IX tissue fluorescence developed for the detection in cancerous cells with tissue depths of up to several millimeters (27) were adapted for detecting changes in the endogenous levels of protoporphyrin IX in BPA rings which were organ cultured with ALA. When excited with light in the regions of 505 and 540 nm, protoporphyrin IX has an emission in the region of 635 nm. […] Increases in protoporphyrin IX were measured using an excitation wavelength of 528±20 nm and emission of 620±40 nm in intact vessels. Ring segments of approximately equal size (˜4 mm in diameter and length) were centered on the bottom of the ˜6 mm diameter wells of a 96 well microplate with 200 μl of Krebs containing with 10 mM Hepes buffer (pH 7.4), and the fluorescence was measured from the bottom surface of the plate using BIOTEK fluorescent microplate reader (Model FLx800i). Data are reported in the arbitrary fluorescence units measured (AU), after subtraction of the low levels of background fluorescence observed in the absence of BPA.

For test [4], the target named is T1, sGC (Bos taurus, UniProt P16068).
T1 sequence (P16068 1-619): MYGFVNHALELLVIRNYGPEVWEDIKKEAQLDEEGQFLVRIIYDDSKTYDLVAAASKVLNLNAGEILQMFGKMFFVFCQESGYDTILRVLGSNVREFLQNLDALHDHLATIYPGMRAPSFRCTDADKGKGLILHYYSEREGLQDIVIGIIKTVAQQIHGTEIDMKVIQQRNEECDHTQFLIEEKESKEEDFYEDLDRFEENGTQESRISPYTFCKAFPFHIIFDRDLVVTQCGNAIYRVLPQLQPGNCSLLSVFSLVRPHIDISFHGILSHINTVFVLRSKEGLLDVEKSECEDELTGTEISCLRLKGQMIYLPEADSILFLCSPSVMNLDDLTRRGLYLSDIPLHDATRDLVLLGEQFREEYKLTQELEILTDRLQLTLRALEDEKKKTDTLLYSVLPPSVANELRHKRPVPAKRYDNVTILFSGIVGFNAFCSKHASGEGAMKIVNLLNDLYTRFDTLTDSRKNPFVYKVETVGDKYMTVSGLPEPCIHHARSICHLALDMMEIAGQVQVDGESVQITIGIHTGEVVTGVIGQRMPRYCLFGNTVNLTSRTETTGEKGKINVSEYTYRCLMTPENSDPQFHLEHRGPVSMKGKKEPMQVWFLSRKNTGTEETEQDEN
T1 sequence (P19687 1-691 partner): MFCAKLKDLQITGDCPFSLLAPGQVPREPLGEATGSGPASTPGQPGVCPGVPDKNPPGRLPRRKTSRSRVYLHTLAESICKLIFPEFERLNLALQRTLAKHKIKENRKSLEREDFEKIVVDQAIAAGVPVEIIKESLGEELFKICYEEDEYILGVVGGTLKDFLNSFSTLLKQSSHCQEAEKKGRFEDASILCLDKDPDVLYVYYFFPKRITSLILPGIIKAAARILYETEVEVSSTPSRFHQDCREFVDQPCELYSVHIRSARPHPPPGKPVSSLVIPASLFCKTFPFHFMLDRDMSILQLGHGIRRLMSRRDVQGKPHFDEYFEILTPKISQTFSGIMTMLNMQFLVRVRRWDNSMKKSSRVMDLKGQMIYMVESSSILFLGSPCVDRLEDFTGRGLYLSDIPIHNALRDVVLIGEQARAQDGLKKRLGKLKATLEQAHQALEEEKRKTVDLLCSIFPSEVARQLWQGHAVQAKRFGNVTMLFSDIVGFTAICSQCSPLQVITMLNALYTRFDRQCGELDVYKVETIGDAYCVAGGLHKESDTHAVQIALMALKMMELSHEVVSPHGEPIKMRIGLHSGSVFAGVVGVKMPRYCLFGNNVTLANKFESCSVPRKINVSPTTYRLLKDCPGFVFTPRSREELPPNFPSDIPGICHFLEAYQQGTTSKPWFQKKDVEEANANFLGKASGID
Nature of the test: sGC activity in BPA homogenates (cGMP by ELISA). The note with it: organ culture with 100 μM ALA and/or 100 μM Fe. Further details: Guanylate cyclase activity of homogenates of BPA was measured by enzyme immunoassay; from tissue; host or cells: BPA (pulmonary artery rings, organ cultured) homogenate. The class given is biochemical, bovine. As to the method:
Guanylate cyclase activity of homogenates of BPA was measured by enzyme immunoassay of the amounts of cGMP generated. Briefly, BPA were pulverized in liquid nitrogen and homogenized in MOPS buffer 1:3 wt to buffer ratio at 5° C. Reaction mixture (0.2 ml final volume) contained 20 mM MOPS-KOH (pH 7.4), 0.1 mM GTP, 2 mM MgCl2, 0.3 mM of the phosphodiesterase inhibitor 3-Isobutyl-1-methylxanthine, a GTP-regenerating system consisting of 10 mM phosphocreatine and 150 U/ml creatine phosphokinase, and 0.1 ml of homogenate (11, 15), and test agents, as indicated. Assays of sGC activity were initiated by the addition of BPA homogenate. Incubations were conducted for 10 min at 37° C., and they were terminated by the addition of 0.1 ml of preheated 12 mM EDTA. This was followed by boiling the assay mixtures for 10 min and a subsequent addition of 5% trichloroacetic acid. The precipitate was removed by centrifugation and the supernatant was washed three times with water-saturated diethyl ether. Residual ether was removed by incubation at 70° C. for 5 minutes, prior to measurement of cGMP by ELISA (Cayman), as described in the manual supplied by manufacturer of the ELISA kit.
Background: An ELISA detects its analyte on a solid surface through an enzyme-linked reagent.

For test [5], the system named is bovine pulmonary arteries (BPA). In words: Heme content of BPA homogenates (QuantiChrom heme assay). The settings on record: organ culture with 100 μM ALA and/or 100 μM Fe. The test is classed as cell-based. As to the method: Heme was quantified in BPA homogenates using a QuantiChrom heme assay kit purchased from BioAssay Systems, and changes in absorbance were measured in a BIOTEK scanning microplate spectrophotometer. Briefly, segments were homogenized in 20 mM MOPS+sucrose buffer and diluted to approximately 5 mg protein/ml. Homogenates were centrifuged at 2000×g for 5 min, and 50 μl of supernatant obtained were assayed for their heme content based on the manufacture's instructions, employing measurements of changes in absorbance at 400 nm. The protein content of the supernatant was measured with Biorad protein assay kit, and tissue heme levels were reported as nanomoles/mg protein.

The test system of a further test is bovine airways. In words: Superoxide detection by lucigenin chemiluminescence in bovine airways. The class given is cell-based. The settings on record: 10 μM PDBu for 30 minutes. As to the method:
Bovine bronchi were isolated from the same lungs used for pulmonary arteries, and studied for changes in protoporphyrin IX fluorescence and force under the same conditions as bovine pulmonary arteries described above. Superoxide was detected by the chemiluminescence produced by 5 μM lucigenin, which was detected by photon counting in a scintillation counter.

Test [6] addresses T1, sGC. The settings on record: reference (34), cited from earlier work.
The target of test [7] is T2, sGC purified from bovine lungs (Bos taurus, UniProt P16068).
T2 construct: host or cells: bovine lung
T2 sequence (P16068 1-619): T1 sequence (P16068 1-619)
T2 sequence (P19687 1-691 partner): T1 sequence (P19687 1-691 partner)
The note with it: reference (34); cited from earlier work.

Where [8] appears, read: 100 μM Fe in the presence of 100 μM ALA.
Where [9] appears, read: organ culture with 100 μM Fe alone.
The mark [10] stands for this setting: 10 μM ODQ on BPA organ cultured with 100 μM ALA.

On to `NCCCNCCCCN(CCCN)/[N+]([O-])=N/O` [spermine-NONOate], for which the “relaxation of organ cultured BPA” value in test [1] (10 μM spermine-NONOate) was “relaxed”. For the same compound, the “VASP serine-239 phosphorylation” value in test [2] (10 μM spermine-NONOate) is “increased VASP phosphorylation”.

Consider `O=S(=O)([O-])[O-].[Fe+2]` [Fe, FeSO4], for which the “protoporphyrin IX fluorescence” value in test [3] (setting [8]) is “reversed the increase in protoporphyrin IX fluorescence”. In addition, the “background fluorescence of BPA” value in test [3] (setting [9]) is given as “did not alter the background fluorescence”. For the same compound, the results for the “force generation by 5-HT” value in test [1] (setting [8]) and in test [1] (setting [9]) were “reversed the force attenuating effects” and “did not alter force generation”, respectively. In addition, at sGC [4], the “BPA homogenate sGC activity” value was “did not alter sGC activity”. Also, the BPA heme levels result in test [5] is given as “did not reach statistical significance”.

`CCCC(=O)O[C@@H]1[C@@H](C)[C@@]2(O)[C@@H](C=C(CO)C[C@]3(O)C(=O)C(C)=C[C@@H]23)[C@@H]2C(C)(C)[C@]12OC(=O)CCC` [PDBu]: the “superoxide detected by 5 μM lucigenin chemiluminescence” value in the test with bovine airways is “causes an increase in superoxide”.

In the case of `C=CC1=C(C)c2cc3[n-]c(cc4[n-]c(cc5nc(cc1n2)C(C)=C5C=C)c(C)c4CCC(=O)O)c(CCC(=O)O)c3C.[Fe+2]` [heme], the Kd on sGC [6] (read-out: binding affinity for the binding site on sGC) was ~350 nM. Besides, the “effect on activation of sGC by protoporphyrin IX” value in test [7] was “competitive inhibitor”.

For the compound `O=c1onc2cnc3ccccc3n12` [ODQ, 1H-[1,2,4]oxadiazolo[4,3-α]quinoxalin-1-one], the “force generation to 5-HT” value in test [1] (10 μM ODQ alone) is listed as “did not alter”. In test [1] (setting [10]), the “decrease in contraction to 5-HT caused by ALA” value is given as “did not alter”. Also, in test [1] (pretreatment with 10 μM ODQ, 10 μM spermine-NONOate), the “relaxation to the NO donor” value was “markedly attenuated relaxation”. In addition, in test [2] (10 μM ODQ alone, appeared to decrease), the “VASP serine-239 phosphorylation” value is given as “did not reach statistical significance”. Also, the “increase in VASP serine-239 phosphorylation caused by ALA” value in test [2] (setting [10]) is recorded as “did not significantly alter the increase in serine-239 VASP phosphorylation”. For the same compound, the “increase in VASP serine-239 phosphorylation caused by the NO donor” value in test [2] (10 μM ODQ with 10 μM spermine-NONOate) is on record as “attenuate the increase caused by the NO donor”.

Consider `C=CC1=C(C)c2cc3[nH]c(cc4nc(cc5[nH]c(cc1n2)c(C)c5CCC(=O)O)C(CCC(=O)O)=C4C)c(C)c3C=C` [protoporphyrin IX], for which the “binding affinity for the binding site on sGC” value on sGC [6] was “low nanomolar concentration range”.
